The target of data set [1] is T1, Oxysterols receptor LXR-beta (Homo sapiens, UniProt P55055).
T1 sequence (P55055 whole entry): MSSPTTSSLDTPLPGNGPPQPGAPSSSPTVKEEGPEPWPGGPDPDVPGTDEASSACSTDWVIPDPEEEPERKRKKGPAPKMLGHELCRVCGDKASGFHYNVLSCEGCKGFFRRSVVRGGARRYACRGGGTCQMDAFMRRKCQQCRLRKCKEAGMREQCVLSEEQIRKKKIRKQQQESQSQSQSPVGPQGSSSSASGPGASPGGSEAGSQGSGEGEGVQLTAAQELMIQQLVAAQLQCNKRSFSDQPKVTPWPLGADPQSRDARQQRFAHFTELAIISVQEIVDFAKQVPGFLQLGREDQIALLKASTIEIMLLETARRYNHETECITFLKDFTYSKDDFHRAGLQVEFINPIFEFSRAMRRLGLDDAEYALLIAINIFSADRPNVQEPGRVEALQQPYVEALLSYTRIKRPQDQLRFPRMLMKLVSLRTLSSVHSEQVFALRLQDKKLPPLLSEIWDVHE
The data set is described as follows: Agonist activity at full length human LXRbeta transfected in HEK293T cells co-expressing ABCA1 assessed as increase in luciferase activity measured after 18 hrs by luciferase reporter gene assay. In kind it is cell-based.

Data set [2] concerns the target T2, Liver X receptor (Homo sapiens, UniProt Q13133+P55055).
T2 sequence (Q13133 whole entry): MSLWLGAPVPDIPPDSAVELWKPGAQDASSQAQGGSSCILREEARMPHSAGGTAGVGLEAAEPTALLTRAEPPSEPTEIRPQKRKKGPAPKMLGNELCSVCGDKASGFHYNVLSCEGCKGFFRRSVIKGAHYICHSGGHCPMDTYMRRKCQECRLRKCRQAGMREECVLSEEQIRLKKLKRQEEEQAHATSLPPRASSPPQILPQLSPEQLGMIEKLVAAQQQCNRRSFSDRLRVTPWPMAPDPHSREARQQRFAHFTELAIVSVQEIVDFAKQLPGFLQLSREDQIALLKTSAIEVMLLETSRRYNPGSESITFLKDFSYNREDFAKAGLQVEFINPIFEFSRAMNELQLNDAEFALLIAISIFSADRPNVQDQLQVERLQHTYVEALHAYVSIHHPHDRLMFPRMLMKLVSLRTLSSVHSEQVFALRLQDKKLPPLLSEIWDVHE
T2 sequence (P55055 whole entry): T1 sequence (P55055 whole entry)
The experiment in a line: Agonist activity at LXR in human HepG2 cells assessed as reduction in SREBP1c proteolytic processing upto 10 uM measured after 72 hrs by Western blot analysis. In kind it is toxicity, cell-based. As to conditions: hepg2, 72 h. For orientation: A western blot detects proteins with antibodies after separation by electrophoresis.

Data set [3] addresses T2, Liver X receptor. The experiment in a line: Agonist activity at LXR in human HepG2 cells assessed as reduction in HMGCR mRNA expression upto 10 uM measured after 72 hrs by RT-qPCR analysis. To be noted: hepg2, 72 h. It is filed as toxicity, cell-based. For orientation: In qPCR the cycle at which signal appears reflects the starting amount.
For data set [4], the system named is HepG2. The experiment in a line: Effect on LDLR mRNA expression level in human HepG2 cells at 5 uM by RT-qPCR analysis. In kind it is functional, cell-based.
Data set [5] addresses T3, Oxysterols receptor LXR-alpha (Homo sapiens, UniProt Q13133).
T3 sequence (Q13133 whole entry): T2 sequence (Q13133 whole entry)
The experiment in a line: Agonist activity at full length human LXRalpha transfected in HEK293T cells co-expressing ABCA1 assessed as increase in luciferase activity measured after 18 hrs by reporter gene assay. In kind it is cell-based. On the technique in general: A reporter such as luciferase makes a cellular process visible.

The species entered for data set [6] is Homo sapiens. The data set is described as follows: Activation at RXR (unknown origin).
In data set [7] the test system is HEK-293T. The data set is described as follows: Cytotoxicity against HEK293T cells transfected with LXRalpha assessed as cell viability at >10 uM measured after 18 hrs by luciferase reporter gene assay. In kind it is toxicity, cell-based. To be noted: human.
Data set [8] has as its target T4, Liver X receptor (Homo sapiens) (UniProt Q13133+P55055). The experiment in a line: Agonist activity at LXR in human THP-1 cells assessed as increase of ABCA1 mRNA expression level at 1 to 10 uM by RT-qPCR analysis. In kind it is cell-based. As to conditions: filed as agonist, dose 1-10 µM.
Data set [9] deals with T4, Liver X receptor (Homo sapiens). The experiment in a line: Agonist activity at LXR in human THP-1 cells assessed as increase of ABCA1 protein expression level at 1 to 10 uM by Western blot analysis. To be noted: filed as agonist, dose 1-10 µM. It is filed as cell-based.
Data set [10] addresses T5, Oxysterols receptor LXR-alpha (Homo sapiens) (UniProt Q13133).
T5 sequence (whole entry): T2 sequence (Q13133 whole entry)
The data set is described as follows: Agonist activity at human LXRalpha-LBD transfected in HEK293T cells co-expressing Gal4-DBD assessed as increase in luciferase activity measured after 18 hrs by reporter gene assay. It is filed as cell-based. As to conditions: filed as agonist, dose 1-10 µM.

Data set [11] addresses T2, Liver X receptor. The experiment in a line: Agonist activity at LXR in human HepG2 cells assessed as increase in SREBF1 mRNA expression level at 1 to 10 uM measured after 72 hrs by RT-qPCR analysis. To be noted: hepg2, 72 h, dose 1-10 µM. It is filed as toxicity, cell-based.
For data set [12], the target named is T6, Oxysterols receptor LXR-beta (Homo sapiens) (UniProt P55055).
T6 sequence (whole entry): T1 sequence (P55055 whole entry)
The experiment in a line: Agonist activity at human LXRbeta-LBD transfected in HEK293T cells co-expressing Gal4-DBD assessed as increase in luciferase activity measured after 18 hrs by reporter gene assay. In kind it is cell-based. To be noted: filed as agonist, dose 1-10 µM.

In data set [13] the target is T4, Liver X receptor (Homo sapiens). The experiment in a line: Agonist activity at LXR in human THP-1 cells assessed as increase of ABCG1 mRNA expression level at 1 to 10 uM by RT-qPCR analysis. As to conditions: filed as agonist, dose 1-10 µM. It is filed as cell-based.
In data set [14] the target is T2, Liver X receptor. The data set is described as follows: Agonist activity at LXR in human HepG2 cells assessed as increase in SREBF1 protein expression level at 1 to 10 uM measured after 72 hrs by Western blot analysis. It is filed as toxicity, cell-based. To be noted: hepg2, 72 h, dose 1-10 µM.
The target in data set [15] is T4, Liver X receptor (Homo sapiens). The experiment in a line: Agonist activity at LXR in cholesterol treated human THP-1 cells assessed as stimulation of plasma mediated cholesterol efflux pre incubated for 24 hrs followed by plasma addition measured after 6 hrs by liquid scintillation counting analysis. It is filed as cell-based. To be noted: filed as agonist, dose 1-10 µM, time 30.0 hrs.

Data set [16] addresses T2, Liver X receptor. The data set is described as follows: Agonist activity at LXR in human HepG2 cells assessed as reduction in HMGCR mRNA expression measured after 72 hrs by RT-qPCR analysis. It is filed as toxicity, cell-based. To be noted: hepg2, 72 h, dose 1-10 µM.
The target in data set [17] is T4, Liver X receptor (Homo sapiens). The experiment in a line: Agonist activity at LXR in human HepG2 cells assessed as increase of IDOL mRNA expression level at 10 uM by RT-qPCR analysis. It is filed as cell-based. As to conditions: filed as agonist.
Data set [18] has as its target T2, Liver X receptor. The data set is described as follows: Agonist activity at LXR in human HepG2 cells assessed as reduction in SREBP1c proteolytic processing measured after 72 hrs by Western blot analysis. As to conditions: hepg2, 72 h, dose 1-10 µM. It is filed as toxicity, cell-based.
For data set [19], the system named is HepG2. The experiment in a line: Effect on LDLR mRNA expression level in human HepG2 cells at 1 to 10 uM by RT-qPCR analysis. It is filed as functional, cell-based. To be noted: dose 1-10 µM.
The target in data set [20] is T4, Liver X receptor (Homo sapiens). The experiment in a line: Agonist activity at LXR in cholesterol treated human THP-1 cells assessed as stimulation of plasma mediated cholesterol efflux at 5 uM pre incubated for 24 hrs followed by plasma addition measured after 6 hrs by liquid scintillation counting analysis. It is filed as cell-based. As to conditions: filed as agonist.

Data set [21] deals with T7, Bile acid receptor (Homo sapiens) (UniProt Q96RI1).
T7 sequence (whole entry): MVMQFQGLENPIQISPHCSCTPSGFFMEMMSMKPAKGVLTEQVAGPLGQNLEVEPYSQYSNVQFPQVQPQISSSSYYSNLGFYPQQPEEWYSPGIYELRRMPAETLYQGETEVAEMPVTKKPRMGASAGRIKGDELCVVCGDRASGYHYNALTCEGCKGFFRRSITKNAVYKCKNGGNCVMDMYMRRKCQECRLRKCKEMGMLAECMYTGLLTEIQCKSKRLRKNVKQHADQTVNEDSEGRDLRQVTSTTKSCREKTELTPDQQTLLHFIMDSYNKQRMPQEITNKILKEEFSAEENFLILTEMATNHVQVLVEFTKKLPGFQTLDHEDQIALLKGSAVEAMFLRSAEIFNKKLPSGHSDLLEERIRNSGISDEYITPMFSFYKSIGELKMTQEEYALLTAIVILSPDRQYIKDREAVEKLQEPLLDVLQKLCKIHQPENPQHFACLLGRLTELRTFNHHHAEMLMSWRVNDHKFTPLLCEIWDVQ
The data set is described as follows: Activation at FXR (unknown origin).

The target of data set [22] is T8, Nuclear receptor ROR-gamma (Homo sapiens) (UniProt P51449).
T8 sequence (whole entry): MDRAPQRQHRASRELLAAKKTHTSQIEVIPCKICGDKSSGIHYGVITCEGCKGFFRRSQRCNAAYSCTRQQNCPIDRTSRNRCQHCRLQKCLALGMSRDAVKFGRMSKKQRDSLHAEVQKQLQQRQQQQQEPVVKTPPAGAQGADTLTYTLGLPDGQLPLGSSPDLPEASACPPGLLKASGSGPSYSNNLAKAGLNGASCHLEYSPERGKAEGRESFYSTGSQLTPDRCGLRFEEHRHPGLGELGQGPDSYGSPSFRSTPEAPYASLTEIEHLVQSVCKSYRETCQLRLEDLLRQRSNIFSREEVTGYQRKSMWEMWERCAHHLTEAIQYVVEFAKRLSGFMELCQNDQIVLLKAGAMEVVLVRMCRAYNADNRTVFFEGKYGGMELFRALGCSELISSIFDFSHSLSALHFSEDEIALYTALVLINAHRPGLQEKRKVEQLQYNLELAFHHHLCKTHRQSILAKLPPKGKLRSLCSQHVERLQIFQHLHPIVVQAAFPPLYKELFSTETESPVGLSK
The data set is described as follows: Activation at RORgamma (unknown origin).

The test system of data set [23] is HepG2. The data set is described as follows: Effect on LDLR mRNA expression level in human HepG2 cells at 1 uM by RT-qPCR analysis. It is filed as functional, cell-based.
Data set [24] has as its target T2, Liver X receptor. The data set is described as follows: Agonist activity at LXR in human HepG2 cells assessed as increase in cellular lipid content at 1 uM measured after 72 hrs by Oil Red O staining based assay. To be noted: hepg2, 72 h. It is filed as toxicity, cell-based.

Calls of active or inactive are those of the source. No cut-off for these calls is given here.

The term EC50 denotes the midpoint of the concentration-response curve. As for `CC(C)CC[C@@H](O)[C@@H](C)[C@H]1CC[C@H]2[C@@H]3CC=C4C[C@@H](O)CC[C@]4(C)[C@H]3CC[C@]12C` [22(R)-HYDROXYCHOLESTEROL], the EC50 in data set [1] was found to be 1500 nM; in data set [5] it was 1200 nM. Also, the Activity result in [2] is “Not Active”; in [3], “Active”. The outcome in data set [4] was inactive.
On to `CC(C)=C[C@@H]1C[C@@H]([C@@H]2CC[C@]3(C)C4=CC[C@H]5C(C)(C)C(=O)CC[C@]5(C)[C@H]4CC[C@@]23C)[C@H](O)O1`, for which the result in data set [6], in [19], in data set [21] and in data set [22] was inactive. Besides, the Activity result is “Toxic” in data set [7]; “Dose-Dependent Effect” in [10]; “Not Active” in data set [11]; “Dose-Dependent Effect” in [12]; “Not Active” in data set [14]; “Dose-Dependent Effect” in [16]. The Activity result in data set [18] is listed as “Dose-Dependent Effect”. Besides, the result in [8], in [9], in data set [13], in [15], in data set [17] and in data set [20] was Active. In addition, the EC50 in [1] came out at 5300 nM; in data set [5], 1600 nM.
For `O=C(O)Cc1cccc(OCCCN(Cc2cccc(C(F)(F)F)c2Cl)CC(c2ccccc2)c2ccccc2)c1`, the outcome in data set [23] was inactive. Besides, the Activity entry in [24] was “Toxic”.
